From paper PMC8113725, “Structure–activity relationship of ipglycermide binding to phosphoglycerate mutases” (The Journal of Biological Chemistry, 2021)
Read-outs that look alike come from different tables or passages of the source. Bridge positions count the residues as written; N and C are the ends. Square brackets hold non-standard residues; d marks the D form. Peptide text beside a SMILES is read from it. Abu = CC[C@H](N)C(=O)O

Columns and labels:
D. immitis iPGM = D. immitis iPGM (Dirofilaria immitis, UniProt F4ZE01); test: biochemical
E. coli iPGM [1] = biological target: T1, E. coli iPGM (Escherichia coli, UniProt P37689); test: biochemical; details: […]
B. malayi iPGM = biological target: T2, B. malayi iPGM (Brugia malayi, UniProt Q4VWF8); test: biochemical; assay type: binding; details: for Kd: Supplementary Table 5, SPR, B.m. iPGM, unit inferred
T2 sequence (Q4VWF8 1-515): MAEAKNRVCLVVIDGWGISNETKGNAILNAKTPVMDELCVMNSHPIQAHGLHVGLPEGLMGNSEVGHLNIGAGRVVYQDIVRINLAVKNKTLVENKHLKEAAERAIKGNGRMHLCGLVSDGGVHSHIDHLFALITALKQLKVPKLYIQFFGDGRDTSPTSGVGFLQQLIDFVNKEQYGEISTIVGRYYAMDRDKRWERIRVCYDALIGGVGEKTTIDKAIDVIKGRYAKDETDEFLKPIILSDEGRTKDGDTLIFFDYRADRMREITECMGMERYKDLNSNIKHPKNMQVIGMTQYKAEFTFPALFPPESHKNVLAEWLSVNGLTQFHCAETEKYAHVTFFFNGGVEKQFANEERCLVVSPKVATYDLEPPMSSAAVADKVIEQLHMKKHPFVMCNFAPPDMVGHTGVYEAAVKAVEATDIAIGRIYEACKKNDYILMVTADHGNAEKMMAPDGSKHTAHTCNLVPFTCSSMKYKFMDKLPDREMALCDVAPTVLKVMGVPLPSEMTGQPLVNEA

E. coli iPGM [2] = biological target: T1, E. coli iPGM; test: SPR binding kinetics and saturation binding, biotinylated iPGM on Biotin CAPture chip (Biacore S200); details: for koff / kon: LoQ = limit of quantitation; for Kd: unit inferred
C. elegans iPGM = C. elegans iPGM (Caenorhabditis elegans, UniProt G5EFZ1); test: as above
[3] = Supplementary Table 5, SPR, E.c. iPGM
[4] = SPR, 25 °C, global fit to 1:1 binding model

CC(C)C[C@H](NC(=O)[C@H](Cc1ccc(O)cc1)NC(=O)[C@@H]1CSCC(=O)N[C@H](Cc2ccc(O)cc2)C(=O)N[C@@H](CC(=O)O)C(=O)N[C@@H](Cc2ccc(O)cc2)C(=O)N2CCC[C@H]2C(=O)NCC(=O)N[C@@H](CC(=O)O)C(=O)N[C@@H](Cc2ccc(O)cc2)C(=O)N1)C(=O)N[C@@H](Cc1ccc(O)cc1)C(=O)NCC(=O)N[C@H](C(=O)NO)[C@@H](C)O [Ce-2 C14NHOH] gave an IC50 (D. immitis iPGM; Di iPGM Ave IC50 (M)) of 2.55e-09 M and an IC50 (E. coli iPGM [1]) of 14000 nM.
In the case of CC[C@@H]1NC(=O)[C@@H](Cc2ccc(O)cc2)NC(=O)CSC[C@@H](C(=O)N[C@@H](Cc2ccc(O)cc2)C(=O)N[C@@H](CC(C)C)C(=O)N[C@@H](Cc2ccc(O)cc2)C(=O)NCC(=O)N[C@H](C(=O)N[C@@H](CS)C(N)=O)[C@@H](C)O)NC(=O)[C@H](Cc2ccc(O)cc2)NC(=O)[C@H](CC(=O)O)NC(=O)CNC(=O)[C@@H]2CCCN2C(=O)[C@H](Cc2ccc(O)cc2)NC1=O [Ce-2 D2Abu] ({CH2CO}-[dY][Abu]YPGDYCYLYGTC-NH2; thioether N-8), the IC50 (D. immitis iPGM; Di iPGM Ave IC50 (M)) is reported as 1.52e-09 M, the IC50 (D. immitis iPGM; IC50 (M)) is reported as 1.57e-09 M and the koff (B. malayi iPGM) is reported as 0.000125 s⁻¹. For the same compound, the kon (B. malayi iPGM) was 561000 M⁻¹ s⁻¹, the Kd (B. malayi iPGM) was 0.223 nM and the koff (E. coli iPGM [2]; [3]) was 0.00202 s⁻¹. It also gave a kon (E. coli iPGM [2]; [3]) of 270000 M⁻¹ s⁻¹, a Kd (E. coli iPGM [2]; [3]) of 25.4 nM and a Kd (C. elegans iPGM) of 0.0157 nM. For the same compound, the koff (C. elegans iPGM) was 4.55e-05 s⁻¹ and the kon (C. elegans iPGM) was 3.04e+06 M⁻¹ s⁻¹.
In the case of CC(C)C[C@H](NC(=O)[C@H](Cc1ccc(O)cc1)NC(=O)[C@@H]1CSCC(=O)N[C@H](Cc2ccc(O)cc2)C(=O)N[C@@H](CC(N)=O)C(=O)N[C@@H](Cc2ccc(O)cc2)C(=O)N2CCC[C@H]2C(=O)NCC(=O)N[C@@H](CC(=O)O)C(=O)N[C@@H](Cc2ccc(O)cc2)C(=O)N1)C(=O)N[C@@H](Cc1ccc(O)cc1)C(=O)NCC(=O)N[C@H](C(=O)N[C@@H](CS)C(N)=O)[C@@H](C)O [Ce-2 D2N] ({CH2CO}-[dY]NYPGDYCYLYGTC-NH2; thioether N-8), the IC50 (D. immitis iPGM; Di iPGM Ave IC50 (M)) is reported as 1.99e-09 M, the IC50 (D. immitis iPGM; IC50 (M)) is reported as 1.87e-09 M and the IC50 (E. coli iPGM [1]) is reported as 170 nM.
CC(C)C[C@H](NC(=O)[C@H](Cc1ccc(O)cc1)NC(=O)[C@@H]1CSCC(=O)N[C@H](Cc2ccc(O)cc2)C(=O)N[C@@H](CC(=O)O)C(=O)N[C@@H](Cc2ccc(O)cc2)C(=O)N2CCC[C@H]2C(=O)NCC(=O)N[C@@H](CC(=O)O)C(=O)N[C@@H](Cc2ccc(O)cc2)C(=O)N1)C(=O)N[C@@H](Cc1ccc(O)cc1)C(=O)NCC(=O)NCC(=O)N[C@@H](Cc1c[nH]cn1)C(N)=O [Ce-2 T13G, C14H] showed an IC50 (D. immitis iPGM; Di iPGM Ave IC50 (M)) of 1.12e-07 M and an IC50 (E. coli iPGM [1]) of 12700 nM.
Work on CC(C)C[C@H](NC(=O)[C@H](Cc1ccc(O)cc1)NC(=O)[C@@H]1CSCC(=O)N[C@H](Cc2ccc(O)cc2)C(=O)N[C@@H](CC(=O)O)C(=O)N[C@@H](Cc2ccc(O)cc2)C(=O)N2CCC[C@H]2C(=O)NCC(=O)N[C@@H](CC(=O)O)C(=O)N[C@@H](Cc2ccc(O)cc2)C(=O)N1)C(=O)N[C@@H](Cc1ccc(O)cc1)C(=O)NCC(=O)NCC(=O)NO [Ce-2 T13G, C14NHOH] yielded an IC50 (D. immitis iPGM; Di iPGM Ave IC50 (M)) of 1.84e-07 M, a koff (B. malayi iPGM) of 0.0284 s⁻¹ and a kon (B. malayi iPGM) of 110000 M⁻¹ s⁻¹. The Kd (B. malayi iPGM) was 245 nM, the koff (E. coli iPGM [2]; [3]) was “> LOQ” and the kon (E. coli iPGM [2]; [3]) was “> LOQ”. It also gave a Kd (C. elegans iPGM) of 16.3 nM, a koff (C. elegans iPGM) of 0.00251 s⁻¹ and a kon (C. elegans iPGM) of 197000 M⁻¹ s⁻¹.
In the case of CC(C)C[C@H](NC(=O)[C@H](Cc1ccc(O)cc1)NC(=O)[C@@H]1CSCC(=O)N[C@H](Cc2ccc(O)cc2)C(=O)N[C@@H](CC(=O)O)C(=O)N[C@@H](Cc2ccc(O)cc2)C(=O)N2CCC[C@H]2C(=O)NCC(=O)N[C@@H](CC(=O)O)C(=O)N[C@@H](Cc2ccc(O)cc2)C(=O)N1)C(=O)N[C@@H](Cc1ccc(O)cc1)C(=O)NCC(=O)N[C@@H](Cc1c[nH]cn1)C(=O)N[C@@H](CS)C(N)=O [Ce-2 T13H], the IC50 (D. immitis iPGM; IC50 (M)) is reported as 3.77e-09 M, the koff (B. malayi iPGM) is reported as 0.000587 s⁻¹ and the kon (B. malayi iPGM) is reported as 1.06e+06 M⁻¹ s⁻¹. It also gave a Kd (B. malayi iPGM) of 0.555 nM, a koff (E. coli iPGM [2]; [3]) of 0.0144 s⁻¹ and a kon (E. coli iPGM [2]; [3]) of 103000 M⁻¹ s⁻¹. It also gave a Kd (E. coli iPGM [2]; [3]) of 62.7 nM, a Kd (C. elegans iPGM) of 0.0264 nM and a koff (C. elegans iPGM) of 1.98e-05 s⁻¹. The kon (C. elegans iPGM) was 752000 M⁻¹ s⁻¹.
Work on CC(C)C[C@H](NC(=O)[C@H](Cc1ccc(O)cc1)NC(=O)[C@@H]1CSCC(=O)N[C@H](Cc2ccc(O)cc2)C(=O)N[C@@H](CC(=O)O)C(=O)N[C@@H](Cc2ccc(O)cc2)C(=O)N2CCC[C@H]2C(=O)NCC(=O)N[C@@H](CC(=O)O)C(=O)N[C@@H](Cc2ccc(O)cc2)C(=O)N1)C(=O)N[C@@H](Cc1ccc(O)cc1)C(=O)NCC(=O)N[C@@H](CO)C(=O)N[C@@H](CS)C(N)=O [Ce-2 Thr13Ser] yielded an IC50 (D. immitis iPGM; IC50 (M)) of 2.56e-09 M, a koff (B. malayi iPGM) of 7.84e-05 s⁻¹ and a kon (B. malayi iPGM) of 1.47e+06 M⁻¹ s⁻¹. For the same compound, the Kd (B. malayi iPGM) was 0.0853 nM, the koff (B. malayi iPGM; [4]) was 7.8e-05 s⁻¹ and the kon (B. malayi iPGM; [4]) was 1.6e+06 M⁻¹ s⁻¹. It also gave a koff (E. coli iPGM [2]; SPR, 25 °C, global fit to 1:1 binding model, read-out: koff) of 0.00033 s⁻¹, a kon (E. coli iPGM [2]; SPR, 25 °C, global fit to 1:1 binding model, read-out: kon) of 240000 M⁻¹ s⁻¹ and a koff (E. coli iPGM [2]; [3]) of 0.000333 s⁻¹. For the same compound, the kon (E. coli iPGM [2]; [3]) was 236000 M⁻¹ s⁻¹, the Kd (E. coli iPGM [2]; [3]) was 1.31 nM and the Kd (C. elegans iPGM) was 0.0287 nM. It also gave a koff (C. elegans iPGM) of 7.83e-05 s⁻¹, a kon (C. elegans iPGM) of 2.86e+06 M⁻¹ s⁻¹ and a koff (C. elegans iPGM; [4]) of 0.00017 s⁻¹. It also gave a kon (C. elegans iPGM; [4]) of 2.9e+06 M⁻¹ s⁻¹.
